Test results from article PMC12439480, “Dimeric CCK2R radiotheranostic tracers synergize with mTOR inhibition for enhanced tumor therapy” (Theranostics, 2025).
Numbered stars: 1 amine (or outer) side, 2 acyl side, 3 side chain; on linkers, the order of the positions; unused ones are H or OH. Square brackets hold non-standard residues; d marks the D form. Side chains are listed from the residue outwards. Peptide text beside a SMILES is read from it. * marks the point of attachment. DOTA = O=C(O)CN1CCN(CC(=O)O)CCN(CC(=O)*)CCN(CC(=O)O)CC1; d(γGlu) = O=C(O)[C@@H](CCC(=O)[*:2])N[*:1]; 1Nal = N[C@@H](Cc1cccc2ccccc12)C(=O)O; NMeNle = CCCC[C@H](NC)C(=O)O; PEG4 = NCCOCCOCCOCCOCCC(=O)O

Experiments:
GSTK1 = test: Western blot of GSTK1 expression; assay type: cell-based, rat; settings: cultured AR42J cells, 24 h
Description: pathway analysis, and Reactome pathway analysis. GO enrichment analysis was conducted using clusterProfiler (v4.0.5). KEGG pathway enrichment was analyzed using clusterProfiler, focusing on pathways relevant to radiotherapy- related detoxification, including glutathione metabolism and cytochrome P450- mediated metabolism of xenobiotics. Reactome pathway analysis was performed using […]
to radiosensitivity regulation. […]
protease and phosphatase inhibitors. Total protein (20 μ g per sample) was separated […]
ABclonal, Cat. No. A5226). After three washes with TBST, membranes were […]
temperature. Protein bands were visualized using an enhanced chemiluminescence detection system (CLINX, ChemiScope 6200).
Section S6: Toxicity Studies […]
mice reached one of the predefined endpoints. The samples were then centrifuged at […]
RBC, WBC, PLT, ALT, AST, ALP, BUN, and CREA. Sample analysis was performed

AR42J tumor-bearing mice [1] = test: Toxicity studies (blood count, blood biochemistry, histopathology)
Description: On day 12 post-treatment, the tumor tissues were processed and subjected to scRNA-seq and immunohistochemical (IHC) analysis (see Supplementary Methods, Section S4). […] Toxicity studies were conducted when the mice reached one of the predefined endpoints (Supplementary Methods, Section S6). […]
Section S6: Toxicity Studies
Blood samples were collected retro-orbitally using a glass capillary tube when mice reached one of the predefined endpoints. The samples were then centrifuged at 6,000 rpm for 10 minutes (Centrifuge 5417R, Eppendorf SE, Enfield, CT, USA), and the supernatant was transferred into a preventive care profile plus rotor for analysis of RBC, WBC, PLT, ALT, AST, ALP, BUN, and CREA. Sample analysis was performed

AR42J tumor-bearing mice [2] = test: In vivo therapeutic study (tumor volume, survival, body weight); set-up: species or system BALB/c nude mice
Text: When the tumor volume reached approximately 100 mm^3, the AR42J tumor-bearing mice were randomly divided into four treatment groups (n = 8/group).
Tumor volumes and body weights were monitored every two days. The following humane endpoints were established as follows: tumor volume exceeding 1500 mm^3, weight loss greater than 15%, or observable signs of pain or distress. Mice meeting one of these criteria were euthanized.

AR42J tumor-bearing mice [3] = test: in vivo; set-up: species or system BALB/c nude mice; settings: mouse, 1 h
Description: To complement the imaging studies, biodistribution experiments were performed. AR42J tumor-bearing mice were intravenously injected with 3.7 MBq of [^68Ga]Ga-DOTA-CCK2R-dimer (≈ 120 pmol) or [^68Ga]Ga-DOTA-CCK-66 (≈ 210 pmol) (dissolved in 200 μL of saline; n = 3/group). The mice were sacrificed at 30, 60, and 120 min post-injection, and the tissues of interest were excised, weighed, and analyzed for radioactivity using a γ-counter. For blocking studies, a 400-fold excess of the lead compound was co-administered, and the mice were sacrificed at 1 h post-injection.
All animal studies were approved by the Ethics Committee of Fudan University
Shanghai Cancer Center (No. FUSCC-IACUC- S2023- 0003). Five-week-old female
BALB/c nude mice were purchased from Shanghai SLAC Laboratory Animal
Company. To establish cell-derived xenograft (CDX) models, 1 × 10⁶ AR42J cells
(100 μL) were subcutaneously inoculated into the right shoulder of each mouse. […]

[4] = set-up: species or system KM mice; settings: mouse, in vivo, iv
Description: To evaluate the clearance rates of [^68Ga]Ga-DOTA-CCK2R-dimer and [^68Ga]Ga-DOTA-CCK-66 from the blood, a pharmacokinetic study was conducted in male KM mice (4-6 weeks old, 18-20 g, n = 5/group). Each mouse received 3.7 MBq of radiotracer via tail vein injection, corresponding to approximately 120 pmol of [^68Ga]Ga-DOTA-CCK2R-dimer or 210 pmol of [^68Ga]Ga-DOTA-CCK-66. Blood samples were collected from the tail vein into preweighed capillary tubes at 1, 3, 5, 10, 15, 30, 60, 90, 120, and 150 min post-injection. The radioactivity of the blood samples was measured using a γ-counter, and the percent of injected dose per gram of tissue (%ID/g) was calculated. Additionally, we assessed the in vivo stability of [^177Lu]Lu-DOTA-CCK2R-dimer. Mice were intravenously injected with 7.4 MBq (≈ 240 pmol) of [^177Lu]Lu-DOTA-CCK2R-dimer (dissolved in 200 μL of saline; n = 3/group). Urine samples were collected at 1, 4, and 24 hours post-injection, then diluted, filtered through a 0.22 μm membrane, and analyzed by radio-HPLC.
All animal studies were approved by the Ethics Committee of Fudan University […]
Shanghai Cancer Center (No. FUSCC-IACUC- S2023- 0003). […]
Pharmacokinetics in Normal Mice
F or the pharmacokinetics study, […] male KM mice (4 - 6 weeks old, weighing 18 - 20 g) were administered either [68Ga]Ga-D O TA -CCK2R-dimer or [68Ga]Ga-D O TA -CCK- 66 (3.7 MBq per mouse, n = 5/group) via tail vein injection.
Blood samples were collected from the tail vein using pre-weighed capillary tubes at […]
(§1) Radioactivity levels were measured using a gamma counter, with decay correction applied based on the injection time. The percentage of injected dose per gram of tissue (%ID/g) was calculated for each time point. […]

AR42J tumor-bearing mice [5] = test: Ex vivo biodistribution of 177Lu-labeled compound; set-up: species or system BALB/c nude mice; settings: mouse, in vivo
Description: To evaluate the biodistribution of [^177Lu]Lu-DOTA-CCK2R-dimer, AR42J tumor-bearing mice received intravenous (i.v.) injections of 3.7 MBq (≈ 120 pmol) of [^177Lu]Lu-DOTA-CCK2R-dimer (dissolved in 200 μL of saline; n = 3/group), and Mice were sacrificed at 1, 4, 24, 48, 72, and 96 h post-injection. The tissues of interest were excised, weighed, and analyzed for radioactivity using a γ-counter.
All animal studies were approved by the Ethics Committee of Fudan University Shanghai Cancer Center (No. FUSCC-IACUC- S2023- 0003). Five-week-old female BALB/c nude mice were purchased from Shanghai SLAC Laboratory Animal
Company. To establish cell-derived xenograft (CDX) models, 1 × 10⁶ AR42J cells (100 μL) were subcutaneously inoculated into the right shoulder of each mouse. […]
as §1

[6] = set-up: species or system mice; settings: mouse, in vivo, 24 h
Description: In vitro stability was evaluated by incubating ~37 kBq of each radiotracer in PBS or human serum at 37 °C (n = 3). […] To further assess the in vivo stability of [^177Lu]Lu-DOTA-CCK2R-dimer, mice (n = 3) were intravenously injected with 3.7 MBq of the radiotracer in 200 μL of saline. […] The radioactivity of the blood samples was measured using a γ-counter, and the percent of injected dose per gram of tissue (%ID/g) was calculated. Additionally, we assessed the in vivo stability of [^177Lu]Lu-DOTA-CCK2R-dimer. Mice were intravenously injected with 7.4 MBq (≈ 240 pmol) of [^177Lu]Lu-DOTA-CCK2R-dimer (dissolved in 200 μL of saline; n = 3/group).

[7] = post-treatment blood biochemistry

## CO[C@H]1C[C@@H]2CC[C@@H](C)[C@@](O)(O2)C(=O)C(=O)N2CCCC[C@H]2C(=O)O[C@H]([C@H](C)C[C@@H]2CC[C@@H](OCCO)[C@H](OC)C2)CC(=O)[C@H](C)/C=C(\C)[C@@H](O)[C@@H](OC)C(=O)[C@H](C)C[C@H](C)/C=C/C=C/C=C/1C [RAD001, everolimus, reference compound]
GSTK1
  GSTK1 expression (Western blot): lower in the mTOR group than in the Veh group
AR42J tumor-bearing mice [1]; post-treatment CBC
  GRA: 23.97 ± 4.05%
  GRA#: 0.19 ± 0.05 109/L
  HCT: 25.73 ± 1.05%
  HGB: 178.57 ± 3.40 g/L
  LYM: 53.9 ± 5.47%
  LYM#: 0.41 ± 0.03 109/L
  MCH: 35.33 ± 0.87 pg
  MCHC: 693.67 ± 15.95 g/L
  MCV: 51.03 ± 0.57 fL
  MON: 22.13 ± 2.32%
  MON#: 0.17 ± 0.05 109/L
  MPV: 13.8 ± 0.35 fL
  P-LCR: 45.87 ± 1.03%
  PCT: 0.12 ± 0.01%
  PDW: 32.9 ± 0.3 fL
  PLT: 104.33 ± 2.52 109/L
  RBC: 5.05 ± 0.22 1012/L
  RDWCV: 11.23 ± 0.15%
  RDWSD: 23.33 ± 1.10 fL
  WBC: 7.67 ± 1.15 109/L
AR42J tumor-bearing mice [1]; [7]
  ALP: 150.68 ± 32.99 U/L
  ALT: 43.73 ± 11.08 U/L
  AST: 109.76 ± 13.94 U/L
  UA: 140.92 ± 41.88 µmol/L
  UREA: 3.49 ± 1.30 mmol/L
AR42J tumor-bearing mice [2]; Kaplan-Meier
  median survival time: 32 days
AR42J tumor-bearing mice [2]; day 10
  average tumor volume: 197.63 ± 40.92 mm³

## CCCC[C@@H](C(=O)N[C@@H](CC(=O)O)C(=O)N[C@@H](Cc1cccc2ccccc12)C(N)=O)N(C)C(=O)[C@H](Cc1c[nH]c2ccccc12)NC(=O)CCOCCOCCOCCOCCNC(=O)CC[C@@H](NC(=O)CC[C@H](NC(=O)CN1CCN(CC(=O)O)CCN(CC(=O)O)CCN(CC(=O)O)CC1)C(=O)N[C@H](CCC(=O)NCCOCCOCCOCCOCCC(=O)N[C@@H](Cc1c[nH]c2ccccc12)C(=O)N(C)[C@@H](CCCC)C(=O)N[C@@H](CC(=O)O)C(=O)N[C@@H](Cc1cccc2ccccc12)C(N)=O)C(=O)O)C(=O)O [[68Ga]Ga-DOTA-CCK2R-dimer] [metal not drawn] ({DOTA}-E([d(γGlu)-PEG4-Trp-NMeNle-Asp-1Nal-NH2])[d(γGlu)][PEG4]W[NMeNle]D[1Nal]-NH2)
AR42J tumor-bearing mice [3]
  Bladder uptake: 0.99 ± 0.77 %ID/g
  Heart uptake: 0.2 ± 0.15 %ID/g
  Kidney uptake: 12.32 ± 8.97 %ID/g
  Liver uptake: 3.88 ± 2.47 %ID/g
[4]
  t1/2α: 0.63 min

## CCCC[C@@H](C(=O)N[C@@H](CC(=O)O)C(=O)N[C@@H](Cc1cccc2ccccc12)C(N)=O)N(C)C(=O)[C@H](Cc1c[nH]c2ccccc12)NC(=O)CCOCCOCCOCCOCCNC(=O)CC[C@@H](NC(=O)CC[C@H](NC(=O)CN1CCN(CC(=O)O)CCN(CC(=O)O)CCN(CC(=O)O)CC1)C(=O)N[C@H](CCC(=O)NCCOCCOCCOCCOCCC(=O)N[C@@H](Cc1c[nH]c2ccccc12)C(=O)N(C)[C@@H](CCCC)C(=O)N[C@@H](CC(=O)O)C(=O)N[C@@H](Cc1cccc2ccccc12)C(N)=O)C(=O)O)C(=O)O [[177Lu]Lu-DOTA-CCK2R-dimer] [metal not drawn] ({DOTA}-E([d(γGlu)-PEG4-Trp-NMeNle-Asp-1Nal-NH2])[d(γGlu)][PEG4]W[NMeNle]D[1Nal]-NH2)
AR42J tumor-bearing mice [1]; mouse, in vivo
  ALP: 135.99 ± 24.61 U/L
  ALT: 44.93 ± 6.41 U/L
  AST: 87.94 ± 5.64 U/L
  GRA: 28.7 ± 8.16%
  GRA#: 0.20 ± 0.07 109/L
  HCT: 19.2 ± 5.20%
  HGB: 151.67 ± 19.64 g/L
  LYM: 52.27 ± 2.74%
  LYM#: 0.38 ± 0.14 109/L
  MCH: 41.83 ± 6.37 pg
  MCHC: 714 ± 42.04 g/L
  MCV: 51.63 ± 0.81 fL
  MON: 19.03 ± 9.18%
  MON#: 0.15 ± 0.13 109/L
  P-LCR: 35.87 ± 5.49%
  PCT: 0.16 ± 0.04%
  PDW: 28.67 ± 2.04 fL
  PLT: 116 ± 13.08 109/L
  RBC: 4.72 ± 0.81 1012/L
  RDWCV: 10.77 ± 0.40%
  RDWSD: 22.33 ± 1.15 fL
  UA: 126.33 ± 13.85 µmol/L
  UREA: 3.25 ± 0.56 mmol/L
  WBC: 7.0 ± 2.65 109/L
AR42J tumor-bearing mice [1]; post-treatment CBC
  MPV: 12.2 ± 0.61 fL
AR42J tumor-bearing mice [5]
  Tumor-to-Muscle ratio (T/M): 90.85
[6]
  compound remaining intact in urine (radiochemical purity): more than 96%
